Data as given in patent US20060280725A1, “Compositions and methods of treating and diagnosing hepatoma” (priority 2003, published 2006).
Where two headings read alike, the source gives them in different places.

Test system: human fetal liver fibroblasts (HFLF)
Test: Glutamine transport assay (inhibition and kinetic analysis)
Type: cell-based
Description: FIG. 5. Functional and molecular assessment of ATB^0 expression in human fetal liver fibroblasts (HFLF) and cirrhotic liver tissue. A) Amino acid inhibition analysis of Na^+-dependent glutamine uptake in human fetal liver fibroblasts. Fibroblasts were isolated and cultured as described in the Methods section, and amino acid inhibition analysis of 50 μM L-glutamine uptake was carried out as described in FIG. 1. *p<0.010 vs. control. The Eadie-Hofstee plot of the kinetic analysis is shown as an inset, with the dashed lines representing the resolved high and low affinity components of the composite data (solid line). The derived values of the kinetic constants for each component are given in the Results section. B) Northern blot analysis of ATB^0 expression in HFLF. Radiolabeled cDNA probes were generated with the Megaprime™ kit as described in the Methods section, and hybridized to 20 μg of total RNA from HFLF. Exposure time was 24 h. C) RT-PCR and restriction enzyme analysis of ATB^0 expression in HFLF, normal and cirrhotic liver. The analysis was carried out exactly as described in FIG. 3. Omission of RT is shown for the normal liver sample. D) Expression of ATB^0 in biopsies from a patient with liver cirrhosis and hepatocellular carcinoma (HCC). Northern blot analysis of ATB^0 & SN1 expression were performed on RNA extracted from the snap-frozen biopsies. RNA isolation and northern blot analysis was carried out as described in the Methods section, with full-length riboprobes used for detection of transporter mRNA. Exposure times for the blots are shown to illustrate relative expression levels for ATB^0 in each of the samples.
Glutamine Transport Assays. Measurement of initial-rate glutamine uptake was carried out via the cluster-tray method originally described by Gazzola (21) as reported previously (6, 9). Briefly, after trypsinization hepatoma cells were plated at a density of 1×10^5 cells/well in 24-well culture plates (Costar Corp., Cambridge, Mass.) and allowed to grow to >80% confluence, typically one to two days later. For initial-rate measurements, the radiotracer utilized was L-[G-^3H] glutamine (Amersham Corp., Arlington Heights, Ill.) at 4 μCi/ml, in the presence of unlabeled L-glutamine at 50 μM. For kinetic studies, the amount of unlabeled glutamine in the transport buffer varied from 10 μM to 10 mM. All transport measurements were carried out at 37° C. and were terminated after 30 s by three rapid washes with an ice-cold phosphate-buffered saline solution. Intracellular radiolabeled glutamine was extracted with 0.2 ml/well of 0.2% sodium dodecyl sulfate (SDS) and 0.2 N NaOH; after 1 h, 0.1 ml of the lysate was neutralized with 10 μl of 2 N HCl and subjected to scintillation spectrophotometry in a Packard TopCount™ (Packard Instruments, Meriden, Conn.). The remaining lysate was utilized for the determination of cellular protein by the bicinchoninic acid (BCA) method (Pierce Chemical Co., Rockford, Ill.). Rates of glutamine transport were calculated from the cpm per sample, the specific activity of the uptake mix (in cpm/nmol) and normalized to cellular protein content in a Microsoft Excel® spreadsheet program. Transport values obtained in the absence of extracellular Na^+ (diffusion and Na^+-independent uptake) were subtracted from those in the presence of Na^+ (total uptake) to yield Na^+-dependent rates which are reported in units of nmol•mg^−1 protein•30 s^−1. All transport values depicted are the average±standard deviation of four separate determinations. Kinetic analysis of Eadie-Hofstee linearized transport data (v vs. v/[L-GLN]) was performed by regression analysis (Cricket Graph®, Computer Associates, Islandia, N.Y.). Nonlinear regression analysis was performed with DataDesk (Data Description, Inc. Ithaca, N.Y.) and Excel for two component Michaelis-Menten kinetics: v=((Vmax1×[S])/(Km1+[S])+(Vmax2×[S])/(Km2+[S])). […]

NC(=O)CC[C@H](N)C(=O)O [glutamine, L-glutamine]
Vmax, high affinity component: 5.3 nmol•mg^−1 protein•30 s^−1 | Vmax, low affinity component: 3.1 nmol•mg^−1 protein•30 s^−1 | Km (read-out: Km, high affinity component): 163 µM | Km (read-out: Km, low affinity component): 1200 µM
